Assay: xn = mol fraction of the nth substance listed
Conditions: 100 kPa

CCOC(C)=O + CC[n+]1ccn(C)c1.O=S(=O)([N-]S(=O)(=O)C(F)(F)F)C(F)(F)F
x1 = 1
Conditions | speed of sound [m/s] | viscosity [mPa·s]
298.15 K | 1140.8 | 0.42
308.15 K | 1096 | 0.38
313.15 K | 1073.7 | 0.36
318.15 K | 1051.7 | 0.35
323.15 K | 1029.5 | 0.33

CO + CC[n+]1ccn(C)c1.O=S(=O)([N-]S(=O)(=O)C(F)(F)F)C(F)(F)F
x1 = 1
Conditions | speed of sound [m/s] | viscosity [mPa·s]
303.15 K | 1086.9 | 0.51
313.15 K | 1054.5 | 0.45
323.15 K | 1022.5 | 0.41

CC[n+]1ccn(C)c1.O=S(=O)([N-]S(=O)(=O)C(F)(F)F)C(F)(F)F + CCOC(C)=O
Conditions | speed of sound [m/s] | viscosity [mPa·s]
298.15 K, x2 = 0 | 1240.2 | 32.49
298.15 K, x2 = 0.0986 | 1232.6 | 25
298.15 K, x2 = 0.1858 | 1225.5 | 20.15
298.15 K, x2 = 0.2977 | 1215.3 | 14.83
298.15 K, x2 = 0.3962 | 1203.4 | 10.88
298.15 K, x2 = 0.5051 | 1189.2 | 7.63
298.15 K, x2 = 0.5961 | 1180.3 | 5.44
298.15 K, x2 = 0.6909 | 1171.1 | 3.77
298.15 K, x2 = 0.7974 | 1158.2 | 2.24
298.15 K, x2 = 0.8979 | 1147.7 | 0.93
303.15 K, x2 = 0 | 1229.3 | 27.68
303.15 K, x2 = 0.0986 | 1221.4 | 21.28
303.15 K, x2 = 0.1858 | 1213.9 | 17.32
303.15 K, x2 = 0.5051 | 1175.9 | 6.47
303.15 K, x2 = 0.6909 | 1155.8 | 3.31
308.15 K, x2 = 0.0986 | 1210.4 | 18.31
308.15 K, x2 = 0.1858 | 1202.6 | 14.96
308.15 K, x2 = 0.3962 | 1178.5 | 8.3
308.15 K, x2 = 0.5051 | 1162.7 | 5.78
308.15 K, x2 = 0.5961 | 1151.7 | 4.15
308.15 K, x2 = 0.6909 | 1139.5 | 2.78
308.15 K, x2 = 0.7974 | 1123.4 | 1.63
308.15 K, x2 = 0.8979 | 1109 | 0.83
313.15 K, x2 = 0 | 1207.9 | 20.16
313.15 K, x2 = 0.0986 | 1199.5 | 15.97
313.15 K, x2 = 0.1858 | 1191.4 | 13.01
313.15 K, x2 = 0.2977 | 1179.8 | 9.91
313.15 K, x2 = 0.5961 | 1137.9 | 3.71
313.15 K, x2 = 0.6909 | 1124.4 | 2.48
313.15 K, x2 = 0.7974 | 1106.4 | 1.47
313.15 K, x2 = 0.8979 | 1089.8 | 0.8
318.15 K, x2 = 0 | 1197.3 | 17.48
318.15 K, x2 = 0.0986 | 1188.6 | 14
318.15 K, x2 = 0.2977 | 1168.3 | 8.8
318.15 K, x2 = 0.5961 | 1123.8 | 3.27
318.15 K, x2 = 0.6909 | 1109.4 | 2.3
318.15 K, x2 = 0.7974 | 1089.2 | 1.29
323.15 K, x2 = 0 | 1187 | 15.34
323.15 K, x2 = 0.0986 | 1178.9 | 12.36
323.15 K, x2 = 0.1858 | 1169.7 | 10.19
323.15 K, x2 = 0.2977 | 1156.8 | 7.87
323.15 K, x2 = 0.3962 | 1142.5 | 5.82
323.15 K, x2 = 0.5051 | 1124 | 3.9
323.15 K, x2 = 0.5961 | 1110 | 2.94
323.15 K, x2 = 0.7974 | 1071.9 | 1.16
323.15 K, x2 = 0.8979 | 1051.6 | 0.7

— a compilation of properties of binary mixtures (doi:10.1016/j.molliq.2016.09.077)
